The results in this text go back to patent US20080269279A1, “Substituted furo[2,3-B] pyridine derivatives as cannabinoid-1 receptor modulators” (priority 2007, published 2008).

Assay [1] deals with human GABA α1β3β2 receptors. The assay is described as follows: GABAa, 3H-muscimol binding assay. As to conditions: activity at 10 μM as percentage of activity of control compound P18 at 10 μM (increase of 3H-muscimol binding). On the procedure:
Membranes from recombinant Ltk cells expressing human GABA α1β3β2 receptors were suspended in an ice-cold solution of 100 mM KCl, 10 mM KH2PO4, adjusted to pH=7.4 with 1 M KOH. Tritiated muscimol (PerkinElmer, Wellesley, Mass.) at a concentration of 2 nM, and serial five-fold dilutions of test compounds at 10 μM, 2.0 μM, 400 nM, 80 nM, 16 nM, 3.2 nM, 0.64 nM and 0.13 nM were mixed in 96-well plates containing 200 μL of membrane suspension. Cold muscimol and compound P18 were used as negative and positive controls respectively. The assay mixture was incubated at 4° C. for 2 hours, then harvested on GF/C filter plates and washed with ice-cold 50 mM Tris-Ci buffer. The filter plates were dried and counted in a Wallac MicroBeta® Trilux detector (Model 1450-030; PerkinElmer, Wellesley, Mass.), and the data were downloaded and analyzed using Prism 3.0. The activity of compound P18 at 10 μM was used as reference for the test compounds, and it was expressed as increasing ^3H-muscimol binding by 100%, whereas cold muscimol at 2 μM antagonized ^3H-muscimol binding by 100%. The tested compound's activity at 10 μM was expressed as a percentage of compound P18's activity at 10 μM.
As a reference, the parent compound (the compound not substituted with a R^4 heteroaryl, such as pyrazole or 1,2,4-oxadiazole, as indicated below) is also shown with its Gamma Amino Butyric Acid (GABA) Receptor activity. […] As a result, the compounds of the present invention in which R^4 is a heteroaryl, such as pyrazole or 1,2,4-oxadiazole, have the unexpected benefits of minimizing off target activity at the GABA receptor.
Note: % GABA is defined as the GABA activity of the indicated compound expressed as a percentage of the activity of control compound P18. NA=data not available.

The target of assay [2] is T1, recombinant human CB1 receptor (Homo sapiens, UniProt P21554).
T1 construct: expressed in transfected cells
T1 sequence (P21554 whole entry): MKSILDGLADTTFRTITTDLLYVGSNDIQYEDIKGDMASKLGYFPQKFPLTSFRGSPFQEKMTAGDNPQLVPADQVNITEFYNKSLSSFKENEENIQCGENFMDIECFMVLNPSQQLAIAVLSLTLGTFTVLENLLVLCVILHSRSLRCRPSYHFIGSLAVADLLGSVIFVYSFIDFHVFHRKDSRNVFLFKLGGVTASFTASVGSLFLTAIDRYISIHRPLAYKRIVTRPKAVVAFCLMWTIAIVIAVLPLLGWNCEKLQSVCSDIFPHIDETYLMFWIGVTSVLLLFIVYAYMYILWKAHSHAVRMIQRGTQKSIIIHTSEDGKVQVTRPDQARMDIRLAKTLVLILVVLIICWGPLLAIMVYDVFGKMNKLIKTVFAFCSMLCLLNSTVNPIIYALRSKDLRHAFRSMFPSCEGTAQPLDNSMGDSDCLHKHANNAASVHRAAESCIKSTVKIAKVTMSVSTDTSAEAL
The assay is described as follows: Cannabinoid Receptor-1 (CB1) Functional Activity Assay (intracellular cAMP in CB1-CHO cells). As to conditions: for functional mode at CB1 receptor: CB1 functional activity assay, cAMP. Format: cell-based. The method, then:
The functional activation of CB1 receptor is based on recombinant human CB1 receptor expressed in CHO cells (Felder et al, Mol. Pharmacol. 48: 443-450, 1995). To determine the agonist activity or inverse agonist activity of any test compound, 50 ul of CB1-CHO cell suspension are mixed with test compound and 70 ul assay buffer containing 0.34 mM 3-isobutyl-1-methylxanthine and 5.1 uM of forskolin in 96-well plates. The assay buffer is comprised of Earle's Balanced Salt Solution supplemented with 5 mM MgCl2 1 mM glutamine, 10 mM HEPES, and 1 mg/mL bovine serum albumin. The mixture is incubated at room temperature for 30 minutes, and terminated by adding 30 ul/well of 0.5M HCl. The total intracellular cAMP level is quantitated using the New England Nuclear Flashplate and cAMP radioimmunoassay kit.
To determine the antagonist activity of test compound, the reaction mixture also contains 0.5 nM of the agonist CP55940 (or 50 nM of methanandamide), and the reversal of the CP55940 (or methanandamide) effect is quantitated with increasing concentration of the test compound. Intracellular cAMP is determined as described above. An IC50 value for the test compound is calculated from the titration curve.

The target in assay [3] is T1, recombinant human CB1 receptor. The assay is described as follows: Cannabinoid Receptor-1 (CB1) Binding Assay ([3H]CP-55940 displacement). The method, then: Binding affinity determination is based on recombinant human CB1 receptor expressed in Chinese Hamster Ovary (CHO) cells (Felder et al, Mol. Pharmacol. 48: 443-450, 1995). Total assay volume is 250 μl (240 μl CB1 receptor membrane solution plus 5 μl test compound solution plus 5 μl [3H]CP-55940 solution). Final concentration of [3H]CP-55940 is 0.6 nM. Binding buffer contains 50 mM Tris-HCl, pH 7.4, 2.5 mM EDTA, 5 mM MgCl2, 0.5 mg/mL fatty acid free bovine serum albumin and protease inhibitors (Cat#P8340, from Sigma). To initiate the binding reaction, 5 μl of radioligand solution is added, the mixture is incubated with gentle shaking on a shaker for 1.5 h at 30° C. The binding is terminated by using 96-well harvester and filtering through GF/C filter presoaked in 0.05% polyethylenimine. The bound radiolabel is quantitated using scintillation counter. Apparent binding affinities for various compounds are calculated from IC50 values (DeBlasi et al., Trends Pharmacol Sci 10: 227-229, 1989).

The mark [4] stands for this setting: CB1-CHO cells, forskolin-stimulated cAMP, read-out: EC50 in the CB1 functional activity assay.
Where [5] appears, read: recombinant human CB1 receptor expressed in CHO cells, 0.6 nM [3H]CP-55940, read-out: CB1 binding IC50.

The structures appear in SMILES notation. Where two headings read alike, the source gives them in different places. A value given as a limit tells only on which side of the number the result lay.

With `Cc1c(S(=O)(=O)C(C)(C)C)oc2nc(-c3ccc(-c4cn[nH]c4)cc3Cl)c(-c3ccc(Cl)cc3)cc12` [Example 11, 2-(Tert-butylsulfonyl)-5-(4-chlorophenyl)-6-[2-chloro-4-(1H-pyrazol-4-yl)phenyl]-3-methylfuro[2,3-b]pyridine], the “% GABA Example” value in assay [1] worked out at 7%. The EC50 in assay [2] (setting [4]) was less than 20 nM. Also, the “functional mode at CB1 receptor” value in assay [2] is reported as “functional inverse agonists”. For the same compound, the IC50 in assay [3] (setting [5]) was determined as 1 nM.

As for `CC(=O)Nc1c(C(=O)C(C)(C)O)oc2nc(-c3ccc(-c4c[nH]nc4C)cc3Cl)c(-c3ccc(Cl)cc3)cc12` [Example 41, N-[6-[2-Chloro-4-(3-methyl-1H-pyrazol-4-yl)phenyl]-5-(4-chlorophenyl)-2-(2-hydroxy-2-methylpropanoyl)furo[2,3-b]pyridin-3-yl]acetamide], the “% GABA Example” value in assay [1] is on record as 35%. Also, the EC50 in assay [2] (setting [4]) was less than 20 nM. The “functional mode at CB1 receptor” value in assay [2] is “functional inverse agonists”. Moreover, the IC50 in assay [3] (setting [5]) was determined as 5 nM.

On to `CC(C)(C)C(=O)c1oc2nc(-c3ccc(-c4ncon4)cc3Cl)c(-c3ccc(Cl)cc3)cc2c1NC(=O)CO` [Example 43, N-[6-[2-Chloro-4-(1,2,4-oxadiazol-3-yl)phenyl]-5-(4-chlorophenyl)-2-(2,2-dimethylpropanoyl)furo[2,3-b]pyridin-3-yl]-2-hydroxyacetamide], for which the “% GABA Example” value in assay [1] stood at 41%. Also, the EC50 in assay [2] (setting [4]) is less than 20 nM. The “functional mode at CB1 receptor” value in assay [2] was “functional inverse agonists”. Further, the IC50 in assay [3] (setting [5]) was determined as 0.4 nM.

Take `CC(=O)Nc1c(C(=O)C(C)(C)O)oc2nc(-c3ccc(-c4cn[nH]c4)cc3Cl)c(-c3ccc(Cl)cc3)cc12` [Example 1, N-[5-(4-Chlorophenyl)-6-[2-chloro-4-(1H-pyrazol-4-yl)phenyl]-2-(2-hydroxy-2-methylpropanoyl)furo[2,3-b]pyridin-3-yl]acetamide]: the “% GABA Example” value in assay [1] was 38%. Further, the EC50 in assay [2] (setting [4]) is less than 20 nM. Further, in assay [2], the “functional mode at CB1 receptor” value was “functional inverse agonists”. Moreover, the half-maximal inhibitory concentration (IC50) in assay [3] (setting [5]) came out at 2 nM.

Consider `Cc1n[nH]cc1-c1ccc(-c2nc3oc(C(=O)C(C)(C)C)c(CO)c3cc2-c2ccc(Cl)cc2)c(Cl)c1` [Example 37, 1-[6-[2-Chloro-4-(3-methyl-1H-pyrazol-4-yl)phenyl]-5-(4-chlorophenyl)-3-(hydroxymethyl)furo[2,3-b]pyridin-2-yl]-2,2-dimethylpropan-1-one], for which, in assay [1], the “% GABA Example” value turned out to be 14%. Besides, the EC50 in assay [2] (setting [4]) was less than 20 nM. Moreover, the “functional mode at CB1 receptor” value in assay [2] is listed as “functional inverse agonists”. Also, the IC50 in assay [3] (setting [5]) is 1 nM.

Consider `CC(=O)c1c(C(=O)C(C)C)oc2nc(-c3ccc(-c4c[nH]nc4C)cc3Cl)c(-c3ccc(Cl)cc3)cc12` [Example 38, 1-[3-Acetyl-6-[2-chloro-4-(3-methyl-1H-pyrazol-4-yl)phenyl]-5-(4-chlorophenyl)furo[2,3-b]pyridin-2-yl]-2-methylpropan-1-one], for which, in assay [1], the “% GABA Example” value worked out at 39%. For the same compound, the concentration giving a half-maximal response (EC50) in assay [2] (setting [4]) is less than 20 nM. Also, the “functional mode at CB1 receptor” value in assay [2] is listed as “functional inverse agonists”. Also, the IC50 in assay [3] (setting [5]) amounted to 3 nM.

As for `CC(=O)c1c(C(=O)C(C)(C)C)oc2nc(-c3ccc(-c4c[nH]nc4C)cc3Cl)c(-c3ccc(Cl)cc3)cc12` [Example 40, 1-[3-Acetyl-6-[2-chloro-4-(3-methyl-1H-pyrazol-4-yl)phenyl]-5-(4-chlorophenyl)furo[2,3-b]pyridin-2-yl]-2,2-dimethylpropan-1-one], in assay [1], the “% GABA Example” value is given as 12%. Also, in assay [2], the EC50 is less than 20 nM and the “functional mode at CB1 receptor” value is “functional inverse agonists”. The IC50 in assay [3] was 1 nM.

Consider `CC(C)(C)C(=O)c1oc2nc(-c3ccc(-c4cn[nH]c4)cc3Cl)c(-c3ccc(Cl)cc3)cc2c1N` [Example 7, 1-{3-Amino-5-(4-chlorophenyl)-6-[2-chloro-4-(1H-pyrazol-4-yl)phenyl]furo[2,3-b]pyridin-2-yl}-2,2-dimethylpropan-1-one], for which the “% GABA Example” value in assay [1] stood at 17%. Further, the EC50 in assay [2] (setting [4]) is less than 20 nM. In addition, the “functional mode at CB1 receptor” value in assay [2] is on record as “functional inverse agonists”. In addition, the IC50 in assay [3] (setting [5]) was 1 nM.

Take `CC(=O)Nc1c(C(=O)C(C)C)oc2nc(-c3ccc(-c4cc[nH]n4)cc3Cl)c(-c3ccc(Cl)cc3)cc12` [Example 2, N-{5-(4-Chlorophenyl)-6-[2-chloro-4-(1H-pyrazol-3-yl)phenyl]-2-isobutyrylfuro[2,3-b]pyridin-3-yl}acetamide]: in assay [1], the “% GABA Example” value turned out to be 17%. In addition, in assay [2] (setting [4]), the EC50 was less than 20 nM. For the same compound, the “functional mode at CB1 receptor” value in assay [2] was “functional inverse agonists”. Further, in assay [3] (setting [5]), the 50% inhibitory concentration (IC50) is 6 nM.

Take `Cc1n[nH]cc1-c1ccc(-c2nc3oc(C(=O)C(C)(C)C)c(C(N)=O)c3cc2-c2ccc(Cl)cc2)c(Cl)c1` [Example 3, 6-[2-chloro-4-(3-methyl-1H-pyrazol-4-yl)phenyl]-5-(4-chlorophenyl)-2-(2,2-dimethylpropanoyl)furo[2,3-b]pyridine-3-carboxamide]: the “% GABA Example” value in assay [1] was 9%. Further, the EC50 in assay [2] (setting [4]) is less than 20 nM. Further, the “functional mode at CB1 receptor” value in assay [2] is recorded as “functional inverse agonists”. Moreover, the IC50 in assay [3] (setting [5]) stood at 1 nM.
